Data on 33 molecules can be found in ChEMBL document CHEMBL5537127, “Design and synthesis of novel hederagonic acid analogs as potent anti-inflammatory compounds capable of protecting against LPS-induced acute lung injury” (Eur J Med Chem, 2024).

Data set [1] is described as follows: Cytotoxicity against mouse RAW264.7 cells assessed as cell viability at 40 uM incubated for 24 hrs by MTT assay relative to control. The following applies: read-out: Activity. In kind it is toxicity, cell-based. (Tetrazolium assays rely on reduction of a dye to a coloured formazan, in cell work by metabolically active cells.)
Data set [2] deals with RAW264.7. Briefly: Anti-inflammatory activity against LPS-induced mouse RAW264.7 cells assessed as inhibition of NO production at 10 uM preincubated for 2 hrs followed by LPS addition and measured after 24 hrs by Griess reagent-based microplate reader analysis relative to control. The class given is functional. On the set-up: scale not given: the % may be the effect or the level left. The settings on record: time 26 hrs.

Data set [3] deals with RAW264.7. Briefly: Anti-inflammatory activity against LPS-induced mouse RAW264.7 cells assessed as inhibition of NO production at 20 uM preincubated for 2 hrs followed by LPS addition and measured after 24 hrs by Griess reagent-based microplate reader analysis relative to control. In kind it is functional. The settings on record: time 26 hrs. Also noted: scale not given: the % may be the effect or the level left. In general terms: The Griess reaction detects nitrite, a stable product of nitric oxide.

`CC1(C)CC[C@]2(C(=O)OCc3ccccc3)CC[C@]3(C)C(=CC[C@@H]4[C@@]5(C)CCC(=O)[C@@](C)(COC(=O)CCC6CCCC6)[C@@H]5CC[C@]43C)[C@@H]2C1`: in data set [1], the viability at 24 h, 40 µM was 105%. The Activity amounted to 0.34% with RAW264.7 [2] and 0.76% in the data set with RAW264.7 [3].
Take `CC1(C)CC[C@]2(C(=O)O)CC[C@]3(C)C(=CC[C@@H]4[C@@]5(C)CCC(=O)[C@@](C)(CO)[C@@H]5CC[C@]43C)[C@@H]2C1`: the viability at 24 h, 40 µM in data set [1] was determined as 109%.
As for `CC1(C)CC[C@]2(C(=O)OCc3ccccc3)CC[C@]3(C)C(=CC[C@@H]4[C@@]5(C)C/C(=C/c6ccsc6)C(=O)[C@@](C)(CO)[C@@H]5CC[C@]43C)[C@@H]2C1`, the viability at 24 h, 40 µM in data set [1] is 66.9%.
With `COCC(=O)OC[C@]1(C)C(=O)CC[C@@]2(C)[C@H]1CC[C@]1(C)[C@@H]2CC=C2[C@@H]3CC(C)(C)CC[C@]3(C(=O)OCc3ccccc3)CC[C@]21C`, the viability at 24 h, 40 µM in data set [1] came to 105%. Besides, the results for the Activity with RAW264.7 [2] and in the data set on RAW264.7 [3] were 42.74% and 61.15%, respectively.
In the case of `CC1(C)CC[C@]2(C(=O)OCc3ccccc3)CC[C@]3(C)C(=CC[C@@H]4[C@@]5(C)CCC(=O)[C@@](C)(COC(=O)CNC(=O)CCCC[C@@H]6CCSS6)[C@@H]5CC[C@]43C)[C@@H]2C1`, the viability at 24 h, 40 µM in data set [1] was found to be 114%. Also, the Activity in the data set on RAW264.7 [2] is listed as 28.81%; in the data set on RAW264.7 [3] it was 46.99%.
On to `CC1(C)CC[C@]2(C(=O)OCc3ccccc3)CC[C@]3(C)C(=CC[C@@H]4[C@@]5(C)CCC(=O)[C@@](C)(COC(=O)CNC(=O)CNC(=O)CCCC[C@@H]6CCSS6)[C@@H]5CC[C@]43C)[C@@H]2C1`, for which, in data set [1], the viability at 24 h, 40 µM is 78.5%.
Same read-out and setting: as for `CC1(C)CC[C@]2(C(=O)OCc3ccccc3)CC[C@]3(C)C(=CC[C@@H]4[C@@]5(C)CCC(=O)[C@@](C)(COC(=O)CCN6CCCCC6)[C@@H]5CC[C@]43C)[C@@H]2C1`, the figure is 3.82%.
Regarding `CC1(C)CC[C@]2(C(=O)OCc3ccccc3)CC[C@]3(C)C(=CC[C@@H]4[C@@]5(C)CCC(=O)[C@@](C)(COC(=O)CCCC[C@@H]6CCSS6)[C@@H]5CC[C@]43C)[C@@H]2C1`, in data set [1], the viability at 24 h, 40 µM worked out at 119%. In addition, the Activity in the data set with RAW264.7 [2] worked out at 29.81%; with RAW264.7 [3], 56.28%.
`CC1(C)CC[C@]2(C(=O)OCc3ccccc3)CC[C@]3(C)C(=CC[C@@H]4[C@@]5(C)CCC(=O)[C@@](C)(COC(=O)CCn6cccc6)[C@@H]5CC[C@]43C)[C@@H]2C1`: the viability at 24 h, 40 µM in data set [1] is 96.9%. Further, the Activity in the data set with RAW264.7 [2] turned out to be 7.3%; in the data set on RAW264.7 [3], 12.08%.
In the case of `CC1(C)CC[C@]2(C(=O)OCc3ccccc3)CC[C@]3(C)C(=CC[C@@H]4[C@@]5(C)C/C(=C/c6cscn6)C(=O)[C@@](C)(CO)[C@@H]5CC[C@]43C)[C@@H]2C1`, the viability at 24 h, 40 µM in data set [1] was 85%.
Turning to `CC(C)=CC(=O)OC[C@]1(C)C(=O)CC[C@@]2(C)[C@H]1CC[C@]1(C)[C@@H]2CC=C2[C@@H]3CC(C)(C)CC[C@]3(C(=O)OCc3ccccc3)CC[C@]21C`, the viability at 24 h, 40 µM in data set [1] was 95%. For the same molecule, the Activity with RAW264.7 [2] came out at 16.39%; in the data set with RAW264.7 [3], 25.68%.
On to `CC1(C)CC[C@]2(C(=O)OCc3ccccc3)CC[C@]3(C)C(=CC[C@@H]4[C@@]5(C)C/C(=C/c6ccccc6[N+](=O)[O-])C(=O)[C@@](C)(CO)[C@@H]5CC[C@]43C)[C@@H]2C1`, for which the viability at 24 h, 40 µM in data set [1] came out at 65%. Moreover, the Activity worked out at 1.44% in the data set with RAW264.7 [2] and 7.94% with RAW264.7 [3].
For `CC1(C)CC[C@]2(C(=O)OCc3ccccc3)CC[C@]3(C)C(=CC[C@@H]4[C@@]5(C)CCC(=O)[C@@](C)(COC(=O)CCCCCNC(=O)CCCC[C@@H]6CCSS6)[C@@H]5CC[C@]43C)[C@@H]2C1`, the viability at 24 h, 40 µM in data set [1] stood at 99.7%. Moreover, the values for the Activity in the data set with RAW264.7 [2] and with RAW264.7 [3] were 49.56% and 75.31%, respectively.
The corresponding values for `CC1(C)CC[C@]2(C(=O)OCc3ccccc3)CC[C@]3(C)C(=CC[C@@H]4[C@@]5(C)C/C(=C/c6ccc(Br)cc6)C(=O)[C@@](C)(CO)[C@@H]5CC[C@]43C)[C@@H]2C1` are 92.9%, 6.09% and 10.62%.
Take `CC1(C)CC[C@]2(C(=O)OCc3ccccc3)CC[C@]3(C)C(=CC[C@@H]4[C@@]5(C)CCC(=O)[C@@](C)(COC(=O)CCCCNC(=O)CCCC[C@@H]6CCSS6)[C@@H]5CC[C@]43C)[C@@H]2C1`: the viability at 24 h, 40 µM in data set [1] was 31.6%.
With `CC1(C)CC[C@]2(C(=O)OCc3ccccc3)CC[C@]3(C)C(=CC[C@@H]4[C@@]5(C)C/C(=C/c6cnccn6)C(=O)[C@@](C)(CO)[C@@H]5CC[C@]43C)[C@@H]2C1`, the viability at 24 h, 40 µM in data set [1] turned out to be 3.34%. Moreover, the Activity with RAW264.7 [2] came out at 4.56%; in the data set on RAW264.7 [3] it was 5.02%.
Regarding `CC1(C)CC[C@]2(C(=O)OCc3ccccc3)CC[C@]3(C)C(=CC[C@@H]4[C@@]5(C)C/C(=C/c6ccccc6)C(=O)[C@@](C)(CO)[C@@H]5CC[C@]43C)[C@@H]2C1`, the viability at 24 h, 40 µM in data set [1] stood at 68.1%.
For the molecule `CC1(C)CC[C@]2(C(=O)OCc3ccccc3)CC[C@]3(C)C(=CC[C@@H]4[C@@]5(C)CCC(=O)[C@@](C)(COC(=O)CCNC(=O)CCCC[C@@H]6CCSS6)[C@@H]5CC[C@]43C)[C@@H]2C1`, the viability at 24 h, 40 µM in data set [1] came out at 99.4%. The Activity in the data set with RAW264.7 [2] is reported as 43.82%; in the data set on RAW264.7 [3], 62.67%.
For the molecule `CC1(C)CC[C@]2(C(=O)OCc3ccccc3)CC[C@]3(C)C(=CC[C@@H]4[C@@]5(C)CCC(=O)[C@@](C)(COC(=O)CC#N)[C@@H]5CC[C@]43C)[C@@H]2C1`, the viability at 24 h, 40 µM in data set [1] was found to be 93.1%. Further, the Activity in the data set with RAW264.7 [2] was 40.79%; with RAW264.7 [3] it was 57.99%.
The corresponding values for `CC1(C)CC[C@]2(C(=O)OCc3ccccc3)CC[C@]3(C)C(=CC[C@@H]4[C@@]5(C)C/C(=C/c6ccccc6Br)C(=O)[C@@](C)(CO)[C@@H]5CC[C@]43C)[C@@H]2C1` are 92.2%, 5.33% and 12.61%.
With `CC1(C)CC[C@]2(C(=O)OCc3ccccc3)CC[C@]3(C)C(=CC[C@@H]4[C@@]5(C)C/C(=C/c6cncs6)C(=O)[C@@](C)(CO)[C@@H]5CC[C@]43C)[C@@H]2C1`, the viability at 24 h, 40 µM in data set [1] was found to be 64.8%.
Take `CC1(C)CC[C@]2(C(=O)OCc3ccccc3)CC[C@]3(C)C(=CC[C@@H]4[C@@]5(C)CCC(=O)[C@@](C)(COC(=O)c6cc7ccccc7[nH]6)[C@@H]5CC[C@]43C)[C@@H]2C1`: the viability at 24 h, 40 µM in data set [1] stood at 110%. The Activity in the data set on RAW264.7 [2] is recorded as 22.29%; with RAW264.7 [3], 42.11%.
For the molecule `CC1(C)CC[C@]2(C(=O)OCc3ccccc3)CC[C@]3(C)C(=CC[C@@H]4[C@@]5(C)C/C(=C/c6ccc([N+](=O)[O-])cc6)C(=O)[C@@](C)(CO)[C@@H]5CC[C@]43C)[C@@H]2C1`, the viability at 24 h, 40 µM in data set [1] is 119%.
As to `CC1(C)CC[C@]2(C(=O)OCc3ccccc3)CC[C@]3(C)C(=CC[C@@H]4[C@@]5(C)C/C(=C/c6nccs6)C(=O)[C@@](C)(CO)[C@@H]5CC[C@]43C)[C@@H]2C1`, the viability at 24 h, 40 µM in data set [1] was determined as 62.8%.
As for `CC(=O)CCC(=O)OC[C@]1(C)C(=O)CC[C@@]2(C)[C@H]1CC[C@]1(C)[C@@H]2CC=C2[C@@H]3CC(C)(C)CC[C@]3(C(=O)OCc3ccccc3)CC[C@]21C`, the viability at 24 h, 40 µM in data set [1] is 106%. The Activity was determined as 43.51% with RAW264.7 [2] and 59.4% in the data set on RAW264.7 [3].
In the same order, the values of `CC1(C)CC[C@]2(C(=O)OCc3ccccc3)CC[C@]3(C)C(=CC[C@@H]4[C@@]5(C)C/C(=C/c6cccc([N+](=O)[O-])c6)C(=O)[C@@](C)(CO)[C@@H]5CC[C@]43C)[C@@H]2C1` are 109%, 1.09% and 9.38%.
On to `CC1(C)CC[C@]2(C(=O)OCc3ccccc3)CC[C@]3(C)C(=CC[C@@H]4[C@@]5(C)C/C(=C/c6cccc(Br)c6)C(=O)[C@@](C)(CO)[C@@H]5CC[C@]43C)[C@@H]2C1`, for which the viability at 24 h, 40 µM in data set [1] was found to be 94%. The Activity is 3.77% in the data set on RAW264.7 [2] and 3.82% in the data set with RAW264.7 [3].
Consider `CC1(C)CC[C@]2(C(=O)OCc3ccccc3)CC[C@]3(C)C(=CC[C@@H]4[C@@]5(C)CCC(=O)[C@@](C)(COC(=O)CCc6ccccc6)[C@@H]5CC[C@]43C)[C@@H]2C1`, for which, in data set [1], the viability at 24 h, 40 µM is 76.1%.
With `CC[C@H](C)[C@H](NC(=O)CCCC[C@@H]1CCSS1)C(=O)OC[C@]1(C)C(=O)CC[C@@]2(C)[C@H]1CC[C@]1(C)[C@@H]2CC=C2[C@@H]3CC(C)(C)CC[C@]3(C(=O)OCc3ccccc3)CC[C@]21C`, in data set [1], the viability at 24 h, 40 µM amounted to 96%. The Activity stood at 17.94% in the data set on RAW264.7 [2] and 25.3% in the data set with RAW264.7 [3].
`CC1(C)CC[C@]2(C(=O)OCc3ccccc3)CC[C@]3(C)C(=CC[C@@H]4[C@@]5(C)CCC(=O)[C@@](C)(COC(=O)C(F)(F)F)[C@@H]5CC[C@]43C)[C@@H]2C1`: the viability at 24 h, 40 µM in data set [1] was 4.58%.
Take `CC1(C)CC[C@]2(C(=O)OCc3ccccc3)CC[C@]3(C)C(=CC[C@@H]4[C@@]5(C)CCC(=O)[C@@](C)(COC(=O)CCC6CCCCC6)[C@@H]5CC[C@]43C)[C@@H]2C1`: the viability at 24 h, 40 µM in data set [1] was 110%. In addition, the figures for the Activity with RAW264.7 [2] and in the data set with RAW264.7 [3] were 0.64% and 2.05%, respectively.
`CC1(C)CC[C@]2(C(=O)OCc3ccccc3)CC[C@]3(C)C(=CC[C@@H]4[C@@]5(C)C/C(=C/c6cccs6)C(=O)[C@@](C)(CO)[C@@H]5CC[C@]43C)[C@@H]2C1`: in data set [1], the viability at 24 h, 40 µM came to 72.1%.
Take `CC1(C)CC[C@]2(C(=O)OCc3ccccc3)CC[C@]3(C)C(=CC[C@@H]4[C@@]5(C)CCC(=O)[C@@](C)(CO)[C@@H]5CC[C@]43C)[C@@H]2C1`: in data set [1], the viability at 24 h, 40 µM turned out to be 106%. Also, the Activity is recorded as 13.3% in the data set on RAW264.7 [2] and 13.6% in the data set on RAW264.7 [3].
